Experimental data: article PMC6308944, “Anti-Candida albicans Activity of Thiazolylhydrazone Derivatives in Invertebrate and Murine Models” (Journal of Fungi, 2018)
Converted amounts (≈) assume the structure as drawn.

Assays:
C. albicans CAN14 = assay: Murine model of systemic candidiasis; format: in vivo, C57BL/6 mice; details: 10 mg/kg intraperitoneally every 12 h for 5 days
Experimental: Female mice were used in the oral and systemic candidiasis model.
The murine model of systemic candidiasis was established according to the protocol previously described by [16], with modifications. […] Treatments to mice, performed intraperitoneally, were started 3 h after infection and persisted every 12 h for 5 days. […] All mice were sacrificed by cervical dislocation after 5 days and the kidneys were removed, observed macroscopically for lesions and colonies, weighed, measured and homogenized in PBS. The homogenates were serially diluted and plated on Sabouraud medium plates. Plates were incubated at 30 °C for 48 h and the fungal load was expressed as the ratio of CFU/g of kidney.
A p value ≤ 0.05 was considered significant. Statistical analysis of results of murine tests used Newman–Keuls Multiple and the Student’s t-test using GraphPad Prism, a p-value ≤ 0.05 was considered significant.

[1] = test system: Candida albicans clinical isolates; assay: MIC, broth microdilution, clinical isolates
[2] = test system: Candida parapsilosis isolates; assay: MIC, broth microdilution, clinical isolates
[3] = test system: Candida glabrata clinical isolates; assay: MIC, broth microdilution, clinical isolates
[4] = test system: Cryptococcus neoformans clinical isolates; assay: MIC, broth microdilution, clinical isolates
C. albicans (DAY-185) = assay: MIC, broth microdilution (CLSI M27-A3), reference isolate; details: Candida albicans, 48 h
C. albicans (CAN14) = assay: as above; details: Candida albicans
C. krusei (ATCC6258) = assay: as above; details: Pichia kudriavzevii
C. glabrata (ATCC90030) = assay: as above; details: Nakaseomyces glabratus
[5] = test system: C. parapsilosis (ATCC22019); assay: as above; details: Lodderomyces parapsilosis
[6] = test system: C. tropicalis (ATCC13803); assay: as above; details: Candida tropicalis
C. dublinensis (MYA-646) = assay: as above; details: Candida dubliniensis
C. neoformans (H99) = assay: as above; details: Cryptococcus neoformans

Question: Which results are given for `OC(Cn1cncn1)(Cn1cncn1)c1ccc(F)cc1F` [Fluconazole]?
Answer: fungal load in the kidneys (CFU/g) versus untreated control (C. albicans CAN14): significant reduction; MIC50 ([1]; Candida albicans): 1 µg/mL (≈ 3.27 µM); MIC90 ([1]; Candida albicans): 2 µg/mL (≈ 6.53 µM); MIC ([1]; Candida albicans, C. albicans clinical isolate 1): 1 µg/mL (≈ 3.27 µM); MIC ([1]; Candida albicans, C. albicans clinical isolate 02A): 4 µg/mL (≈ 13.1 µM); MIC ([1]; Candida albicans, C. albicans clinical isolate 02B): 2 µg/mL (≈ 6.53 µM); MIC ([1]; Candida albicans, C. albicans clinical isolate 6): 1 µg/mL (≈ 3.27 µM); MIC ([1]; Candida albicans, C. albicans clinical isolate 7): 1 µg/mL (≈ 3.27 µM); MIC ([1]; Candida albicans, C. albicans clinical isolate 9): 0.5 µg/mL (≈ 1.63 µM); MIC ([1]; Candida albicans, C. albicans clinical isolate 10): 0.5 µg/mL (≈ 1.63 µM); MIC ([1]; Candida albicans, C. albicans clinical isolate 11): 1 µg/mL (≈ 3.27 µM); MIC ([1]; Candida albicans, C. albicans clinical isolate 13): 1 µg/mL (≈ 3.27 µM); MIC90 ([1]; nine C. albicans clinical isolates): 2.0 µg/mL (≈ 6.53 µM); MIC90 ([2]; C. parapsilosis isolates): 16 µg/mL (≈ 52.2 µM); MIC50 ([2]; Lodderomyces parapsilosis): 0.25 µg/mL (≈ 0.816 µM); MIC90 ([2]; Lodderomyces parapsilosis): 16 µg/mL (≈ 52.2 µM); MIC ([2]; Lodderomyces parapsilosis, C. parapsilosis isolate 6901): 0.25 µg/mL (≈ 0.816 µM); MIC ([2]; Lodderomyces parapsilosis, C. parapsilosis isolate 6917): 0.25 µg/mL (≈ 0.816 µM); MIC ([2]; Lodderomyces parapsilosis, C. parapsilosis isolate 6933): 0.25 µg/mL (≈ 0.816 µM); MIC ([2]; Lodderomyces parapsilosis, C. parapsilosis isolate 7449): 16 µg/mL (≈ 52.2 µM); MIC ([2]; Lodderomyces parapsilosis, C. parapsilosis isolate 7585): 0.25 µg/mL (≈ 0.816 µM); MIC ([2]; Lodderomyces parapsilosis, C. parapsilosis isolate 7652): 4 µg/mL (≈ 13.1 µM); MIC ([2]; Lodderomyces parapsilosis, C. parapsilosis isolate 7839): 0.5 µg/mL (≈ 1.63 µM); MIC ([2]; Lodderomyces parapsilosis, C. parapsilosis isolate 7970A): 1 µg/mL (≈ 3.27 µM); MIC ([2]; Lodderomyces parapsilosis, C. parapsilosis isolate 8044): 0.25 µg/mL (≈ 0.816 µM); MIC ([2]; Lodderomyces parapsilosis, C. parapsilosis isolate 8662): 16 µg/mL (≈ 52.2 µM); MIC50 ([3]; Nakaseomyces glabratus): 2 µg/mL (≈ 6.53 µM); MIC90 ([3]; Nakaseomyces glabratus): 2 µg/mL (≈ 6.53 µM); MIC ([3]; Nakaseomyces glabratus, C. glabrata clinical isolate 6922): 2 µg/mL (≈ 6.53 µM); MIC ([3]; Nakaseomyces glabratus, C. glabrata clinical isolate 6927): 2 µg/mL (≈ 6.53 µM); MIC ([3]; Nakaseomyces glabratus, C. glabrata clinical isolate 6931): 0.5 µg/mL (≈ 1.63 µM); MIC ([3]; Nakaseomyces glabratus, C. glabrata clinical isolate 6932): 0.5 µg/mL (≈ 1.63 µM); MIC ([3]; Nakaseomyces glabratus, C. glabrata clinical isolate 6943): 8 µg/mL (≈ 26.1 µM); MIC ([3]; Nakaseomyces glabratus, C. glabrata clinical isolate 7110): 1 µg/mL (≈ 3.27 µM); MIC ([3]; Nakaseomyces glabratus, C. glabrata clinical isolate 7221): 0.5 µg/mL (≈ 1.63 µM); MIC ([3]; Nakaseomyces glabratus, C. glabrata clinical isolate 7255): 2 µg/mL (≈ 6.53 µM); MIC ([3]; Nakaseomyces glabratus, C. glabrata clinical isolate 7815): 2 µg/mL (≈ 6.53 µM); MIC ([3]; Nakaseomyces glabratus, C. glabrata clinical isolate 7871): 2 µg/mL (≈ 6.53 µM); susceptibility of isolates according to CLSI M27-S4 ([3]; all C. glabrata clinical isolates): sensitive; MIC50 [4]: 8 µg/mL (≈ 26.1 µM); MIC90 [4]: 16 µg/mL (≈ 52.2 µM); MIC ([4]; C. neoformans clinical isolate 27JF): 8 µg/mL (≈ 26.1 µM); MIC ([4]; C. neoformans clinical isolate 28JF): 8 µg/mL (≈ 26.1 µM); MIC ([4]; C. neoformans clinical isolate 93): 4 µg/mL (≈ 13.1 µM); MIC ([4]; C. neoformans clinical isolate 94): 8 µg/mL (≈ 26.1 µM); MIC ([4]; C. neoformans clinical isolate 646B): 1 µg/mL (≈ 3.27 µM); MIC ([4]; C. neoformans clinical isolate 975): 2 µg/mL (≈ 6.53 µM); MIC ([4]; C. neoformans clinical isolate 9220): 2 µg/mL (≈ 6.53 µM); MIC ([4]; C. neoformans clinical isolate 9273): 2 µg/mL (≈ 6.53 µM); MIC ([4]; C. neoformans clinical isolate 10131): 8 µg/mL (≈ 26.1 µM); MIC ([4]; C. neoformans clinical isolate 10211): 4 µg/mL (≈ 13.1 µM); MIC ([4]; C. neoformans clinical isolate 10264): 4 µg/mL (≈ 13.1 µM); MIC ([4]; C. neoformans clinical isolate 10335): 8 µg/mL (≈ 26.1 µM); MIC ([4]; C. neoformans clinical isolate 10379): 8 µg/mL (≈ 26.1 µM); MIC ([4]; C. neoformans clinical isolate 41292): 8 µg/mL (≈ 26.1 µM); MIC ([4]; C. neoformans clinical isolate 41295): 32 µg/mL (≈ 104 µM); MIC ([4]; C. neoformans clinical isolate 41296): 16 µg/mL (≈ 52.2 µM); MIC ([4]; C. neoformans clinical isolate 41297): 8 µg/mL (≈ 26.1 µM); MIC ([4]; C. neoformans clinical isolate 41298): 8 µg/mL (≈ 26.1 µM); MIC ([4]; C. neoformans clinical isolate 41299): 4 µg/mL (≈ 13.1 µM); MIC ([4]; C. neoformans clinical isolate 90896): 32 µg/mL (≈ 104 µM); MIC ([4]; C. neoformans clinical isolate 92868): 8 µg/mL (≈ 26.1 µM); MIC ([4]; C. neoformans clinical isolate BF113): 16 µg/mL (≈ 52.2 µM); MIC ([4]; C. neoformans clinical isolate BF114): 64 µg/mL (≈ 209 µM); MIC ([4]; C. neoformans clinical isolate C31): 4 µg/mL (≈ 13.1 µM); MIC ([4]; C. neoformans clinical isolate F10): 4 µg/mL (≈ 13.1 µM); MIC ([4]; C. neoformans clinical isolate RN01): 4 µg/mL (≈ 13.1 µM); MIC ([4]; C. neoformans clinical isolate WP): 8 µg/mL (≈ 26.1 µM); MIC (C. albicans (DAY-185)): 0.5 µg/mL (≈ 1.63 µM); MIC (C. albicans (CAN14)): 0.125 µg/mL (≈ 0.408 µM); MIC (C. krusei (ATCC6258)): 64 µg/mL (≈ 209 µM); MIC (C. glabrata (ATCC90030)): 4 µg/mL (≈ 13.1 µM); MIC [5]: 8 µg/mL (≈ 26.1 µM); MIC [6]: > 64 µg/mL; MIC (C. dublinensis (MYA-646)): 1 µg/mL (≈ 3.27 µM); MIC (C. neoformans (H99)): 2 µg/mL (≈ 6.53 µM)
